Activity and IC50 data for 22 compounds are collected here from ChEMBL document CHEMBL1142376, “Novel CADD-based peptidyl vinyl ester derivatives as potential proteasome inhibitors” (Bioorg Med Chem Lett, 2008).

Bounds are passed on as bounds.

In one experiment the test system is KB. Nature of the experiment: Antiproliferative activity against human KB cells at 10 umole. It counts as functional.
Experiment [1] in a line: Inhibition of post acidic-like activity of 20S proteasome.
A further experiment deals with BGC-823. Nature of the experiment: Antiproliferative activity against human BGC823 cells at 10 umole. The experiment is classed as functional.
Experiment [2] is described as follows: Inhibition of trypsin-like activity of 20S proteasome.
Experiment [3] is described as follows: Inhibition of chymotrypsin-like activity of 20S proteasome.
The next experiment concerns HL-60. The experiment can be described thus: Antiproliferative activity against human HL60 cells at 10 umole. The experiment is classed as functional.
The subject of the next experiment is Bel-7402. Nature of the experiment: Antiproliferative activity against human Bel7402 cells at 10 umole. The experiment is classed as functional.

With `CCOC(=O)/C=C/[C@H](Cc1ccccc1)NC(=O)[C@@H](NC(=O)OC(C)(C)C)[C@@H](C)CC`, the Activity is -0.18% in the experiment with KB, 24.14% in the experiment with BGC-823, 29.56% in the experiment on HL-60 and -7.74% in the experiment with Bel-7402. Further, the IC50 in experiment [1], in experiment [2] and in experiment [3] was more than 100 µmol in each case.

As to `CCOC(=O)/C=C/[C@H](Cc1ccc(O)cc1)NC(=O)[C@H](Cc1ccccc1)NC(=O)[C@H](CC(C)C)NC(=O)OC(C)(C)C`, the Activity was -5.34% in the experiment with KB, 13.74% with BGC-823, 7.87% in the experiment on HL-60 and -4.24% in the experiment with Bel-7402. Further, the IC50 in experiment [1], in experiment [2] and in experiment [3] was more than 100 µmol in each case.

In the case of `CCOC(=O)/C=C/[C@H](Cc1ccc(O)cc1)NC(=O)[C@H](CC(C)C)NC(=O)[C@H](CC(C)C)NC(=O)OC(C)(C)C`, the Activity with KB was -5.99%; in the experiment on BGC-823, 0.02%; with HL-60 it was -2.64%; in the experiment on Bel-7402, -6.95%. In addition, the IC50 in experiment [1], in experiment [2] and in experiment [3] was more than 100 µmol each time.

Regarding `CCOC(=O)/C=C/[C@H](C[C@@H]1CCNC1=O)NC(=O)[C@H](Cc1ccccc1)NC(=O)[C@H](CC(C)C)NC(=O)OC(C)(C)C`, the Activity with KB is reported as -1.56%; in the experiment with BGC-823, 13.89%; with HL-60 it was -7.61%; with Bel-7402, -1.63%. For the same compound, the IC50 in experiment [1], in experiment [2] and in experiment [3] was more than 100 µmol throughout.

On to `CCOC(=O)/C=C/[C@H](C[C@@H]1CCNC1=O)NC(=O)[C@H](Cc1ccc(O)cc1)NC(=O)[C@H](CC(C)C)NC(=O)[C@H](CC(C)C)NC(=O)OC(C)(C)C`, for which the Activity came to 6.64% in the experiment with KB, 28.9% in the experiment on BGC-823, 17.73% in the experiment on HL-60 and 7.64% in the experiment with Bel-7402. Further, the IC50 in experiment [1] is more than 100 µmol; in experiment [2] it was more than 100 µmol; in experiment [3], 63.41 µmol.

As for `CCOC(=O)/C=C/[C@H](Cc1ccc(O)cc1)NC(=O)[C@@H](NC(=O)[C@@H](NC(=O)OC(C)(C)C)[C@@H](C)CC)[C@@H](C)O`, the Activity was 3.76% with KB, 14.69% with BGC-823, 26.5% in the experiment with HL-60 and 3.1% in the experiment with Bel-7402. Besides, the IC50 in experiment [1], in experiment [2] and in experiment [3] was more than 100 µmol throughout.

`CCOC(=O)/C=C/[C@H](C[C@@H]1CCNC1=O)NC(=O)[C@H](CC(C)C)NC(=O)[C@H](CO)NC(=O)[C@@H](NC(=O)OC(C)(C)C)C(C)C`: the Activity with KB is 9.15%; in the experiment with BGC-823, 20.55%; in the experiment with HL-60, -47.14%; with Bel-7402, -3.55%. The IC50 in experiment [1], in experiment [2] and in experiment [3] was more than 100 µmol in each case.

`CCOC(=O)/C=C/[C@H](Cc1ccccc1)NC(=O)[C@H](CO)NC(=O)[C@@H](NC(=O)OC(C)(C)C)C(C)C`: the Activity with KB is -6.79%; in the experiment on BGC-823 it was 0.04%; in the experiment on HL-60, 0.36%; in the experiment with Bel-7402, -11.09%. The IC50 in experiment [1], in experiment [2] and in experiment [3] was more than 100 µmol throughout.

For the compound `CCOC(=O)/C=C/[C@H](Cc1ccccc1)NC(=O)[C@H](CO)NC(=O)[C@H](Cc1ccccc1)NC(=O)OC(C)(C)C`, the Activity in the experiment with KB was 5.23%; in the experiment on BGC-823, 8.28%; in the experiment on HL-60 it was 21.08%; in the experiment with Bel-7402, -8.04%. For the same compound, the IC50 in experiment [1], in experiment [2] and in experiment [3] was more than 100 µmol throughout.

Take `CC(C)(C)OC(=O)N[C@@H](Cc1ccccc1)C(=O)N[C@@H](CO)C(=O)N[C@H](/C=C/C(=O)O)C[C@@H]1CCNC1=O`: the Activity in the experiment on KB is -15.6%; in the experiment on BGC-823 it was 16.9%; in the experiment with HL-60, 31.04%; with Bel-7402, 1.66%. Besides, the IC50 in experiment [1], in experiment [2] and in experiment [3] was more than 100 µmol each time.

Regarding `CCOC(=O)/C=C/[C@H](Cc1ccccc1)NC(=O)[C@H](Cc1ccccc1)NC(=O)[C@H](CC(C)C)NC(=O)OC(C)(C)C`, the Activity is reported as 4.33% in the experiment on KB, 13.32% with BGC-823, 8.65% in the experiment with HL-60 and -4.56% in the experiment on Bel-7402. For the same compound, the IC50 in experiment [1], in experiment [2] and in experiment [3] was more than 100 µmol throughout.

Consider `CCOC(=O)/C=C/[C@H](C[C@@H]1CCNC1=O)NC(=O)[C@@H](NC(=O)[C@@H](NC(=O)OC(C)(C)C)[C@@H](C)CC)[C@@H](C)O`, for which the Activity in the experiment on KB was -10.29%; with BGC-823, 0.69%; in the experiment on HL-60, 0.71%; with Bel-7402, -16.67%. The IC50 in experiment [1], in experiment [2] and in experiment [3] was more than 100 µmol each time.

As for `CCOC(=O)/C=C/[C@H](Cc1ccc(O)cc1)NC(=O)[C@H](CO)NC(=O)[C@@H](NC(=O)OC(C)(C)C)C(C)C`, the Activity in the experiment on KB was 7.44%; in the experiment with BGC-823 it was 22.59%; in the experiment with HL-60, 26.73%; with Bel-7402, 3.39%. The IC50 in experiment [1], in experiment [2] and in experiment [3] was more than 100 µmol throughout.

For `CC(C)(C)OC(=O)N[C@@H](Cc1ccccc1)C(=O)N[C@@H](CO)C(=O)N[C@H](/C=C/C(=O)O)Cc1ccc(O)cc1`, the Activity stood at 7.44% with KB, 10.28% in the experiment on BGC-823, 13.37% in the experiment on HL-60 and 3.39% in the experiment on Bel-7402. The IC50 in experiment [1], in experiment [2] and in experiment [3] was more than 100 µmol each time.

Take `CCOC(=O)/C=C/[C@H](C[C@@H]1CCNC1=O)NC(=O)[C@H](CO)NC(=O)[C@@H](NC(=O)OC(C)(C)C)C(C)C`: the Activity in the experiment on KB is recorded as -3.45%; in the experiment with BGC-823, 5.52%; with HL-60, -1.94%; in the experiment with Bel-7402, -4.98%. Further, the IC50 in experiment [1], in experiment [2] and in experiment [3] was more than 100 µmol in each case.

As for `CC(C)(C)OC(=O)N[C@@H](CO)C(=O)N[C@H](/C=C/C(=O)O)Cc1ccc(O)cc1`, the Activity is -15.49% in the experiment with KB, 22.56% in the experiment on BGC-823, 19.26% in the experiment with HL-60 and -5.91% in the experiment with Bel-7402. Moreover, the IC50 in experiment [1], in experiment [2] and in experiment [3] was more than 100 µmol each time.

Turning to `CCOC(=O)/C=C/[C@H](Cc1ccccc1)NC(=O)[C@@H](NC(=O)[C@@H](NC(=O)OC(C)(C)C)[C@@H](C)CC)[C@@H](C)O`, the Activity is given as 10.75% in the experiment with KB, 13.62% in the experiment on BGC-823, 8.17% in the experiment with HL-60 and -1.79% in the experiment on Bel-7402. Besides, the IC50 in experiment [1], in experiment [2] and in experiment [3] was more than 100 µmol each time.

Consider `CCOC(=O)/C=C/[C@H](C[C@@H]1CCNC1=O)NC(=O)[C@H](CC(C)C)NC(=O)[C@H](CO)NC(=O)[C@H](Cc1ccccc1)NC(=O)OC(C)(C)C`, for which the Activity is reported as -4.17% in the experiment with KB, 14.25% in the experiment on BGC-823, 4.94% in the experiment with HL-60 and -0.39% with Bel-7402. Besides, the IC50 in experiment [1], in experiment [2] and in experiment [3] was more than 100 µmol throughout.

In the case of `CCOC(=O)/C=C/[C@H](C[C@@H]1CCNC1=O)NC(=O)[C@H](CC(C)C)NC(=O)[C@H](CC(C)C)NC(=O)[C@H](CC(C)C)NC(=O)OC(C)(C)C`, the Activity is 15.73% with KB, 16.14% in the experiment with BGC-823, 17.17% in the experiment on HL-60 and 12.02% in the experiment on Bel-7402. Moreover, the IC50 in experiment [1] was more than 100 µmol; in experiment [2], more than 100 µmol; in experiment [3] it was 48.31 µmol.

Consider `CCOC(=O)/C=C/[C@H](C[C@@H]1CCNC1=O)NC(=O)[C@H](CC(C)C)NC(=O)[C@H](CC(C)C)NC(=O)OC(C)(C)C`, for which the Activity is -14.03% in the experiment on KB, 21.44% in the experiment on BGC-823, 36.97% in the experiment with HL-60 and -2.4% with Bel-7402. Further, the IC50 in experiment [1], in experiment [2] and in experiment [3] was more than 100 µmol in each case.

As to `CCOC(=O)/C=C/[C@H](Cc1ccccc1)NC(=O)[C@H](CC(C)C)NC(=O)[C@H](CC(C)C)NC(=O)OC(C)(C)C`, the Activity in the experiment on KB was -1.67%; with BGC-823, 9.95%; with HL-60, 6.13%; with Bel-7402, -12.87%. Moreover, the IC50 in experiment [1], in experiment [2] and in experiment [3] was more than 100 µmol throughout.

On to `CCOC(=O)/C=C/[C@H](C[C@@H]1CCNC1=O)NC(=O)[C@H](CC(C)C)NC(=O)[C@@H](NC(=O)[C@@H](NC(=O)OC(C)(C)C)[C@@H](C)CC)[C@@H](C)O`, for which the Activity with KB is recorded as 4.3%; in the experiment on BGC-823 it was 19.98%; with HL-60, -2.32%; in the experiment with Bel-7402 it was -0.31%. For the same compound, the IC50 in experiment [1], in experiment [2] and in experiment [3] was more than 100 µmol in each case.
